Source: publication PMC6362038, “Secondary structures and cell-penetrating abilities of arginine-rich peptide foldamers” (Scientific Reports, 2019)
Peptide text beside a SMILES is read from it. * marks the point of attachment. 5FAM = O=C1OC2(c3ccc(O)cc3Oc3cc(O)ccc32)c2ccc(C(=O)*)cc21

Assays:
HeLa cells [1] = assay: Cellular uptake of CF-labeled peptides into HeLa cells (flow cytometry); type: cell-based; details: 1 µM peptide, 2, 6 and 24 h, DMEM 10% FBS, heparin wash, trypsinized, flow cytometry fluorescence, mean of n = 3
Procedure: Cellular uptake of peptides was assessed against HeLa (Fig. 5a) and CHO-K1 cells (Fig. 5b) at a concentration of 1 µM and various incubation times (2, 6, and 24 h). […] Not only stabilities against protease digestion but also other factors might contribute to prolongation of the cell-penetrating ability of peptides. […] The number of Arg residues in Arg-rich peptides is very important for their cell-penetrating ability, and six Arg are not enough. […] Substitution of Arg in Arg peptide with Ac5c, Ac5c^dOM, or (αMe)Leu positively affected its cell-penetrating ability compared with Aib. In comparison, among the peptides containing dAAs, (αMe)Leu peptide was the best for HeLa cell, Ac5c peptide was the best for CHO-K1 cell, and Ac5c^dOM peptide was the worst for both cell types (Fig. 5). Although the best peptides were different depending on cell type, the worst peptide was same for both cell types. […] Taken together, a stable helical structure by introducing dAAs into Arg-rich peptide enhanced their cell-penetrating abilities.
HeLa or CHO-K1 cells were seeded on 24-well culture plates (100,000 cells/well) and incubated in 400 µL of DMEM containing 10% FBS. The medium was then replaced with fresh medium, and a peptide solution was added to each well at a concentration of 1 µM. After each incubation time, the medium was removed and cells were washed with ice-cold PBS with heparin (20 units/mL) and trypsinized. After the addition of medium containing 10% FBS, fluorescence intensity was detected and acquired using an On-chip Flow (On-chip Biotechnologies Co., Ltd, Tokyo, Japan). The results are presented as a mean and standard deviation obtained from 3 samples.

[2] = Resistance to protease digestion with trypsin; type: in vitro ADME; details: 10 µM peptide in 2.5 × 10^−6 w/v% trypsin/PBS, 37 °C, RP-HPLC, α-CHCA internal standard, read-out: intact peptide after incubation with trypsin
Text: (§1) Next, we examined the stability of peptides against protease digestion using trypsin (Fig. 4a) and pronase (Fig. 4b). One of the advantages of peptide foldamers containing dAAs is their high resistance to degradation by proteases[38]–[40]. Trypsin is a serine protease that cleaves amide bonds at the C terminus of cationic amino acids such as Arg and lysine. Pronase is a non-specific protease mixture produced in the culture supernatant of Streptomyces griseus. Ac5c, Ac5c^dOM, (αMe)Leu, and Leu peptides were incubated with trypsin or pronase for 1, 2, and 4 h, and then rate of intact peptide was evaluated by RP-HPLC using α-cyano-4-hydroxycinnamic acid (α-CHCA) as an internal standard. Leu peptide was promptly degraded by both trypsin and pronase, and reached 0% intact peptide after 4 h incubation in a similar manner to Arg peptide reported previously[24],[25]. On the other hand, approximately 80% of Ac5c, Ac5c^dOM, and (αMe)Leu peptides remained intact even after 4 h incubation. Introduction of dAAs into peptides markedly elevated resistance to protease digestion, whether or not peptides formed stable helical structures. In other words, peptides composed of only natural α-amino acids were easily degraded by proteases independently of their peptide secondary structures.
(§2) One-hundred microliters of peptide solution (10 µM) in 2.5 × 10^−6 w/v% trypsin or pronase/phosphate buffer saline (PBS) was incubated at 37 °C for 0, 1, 2, and 4 h. After each incubation time, 250 µL of 1% TFA/PBS solution was added to inactivate the proteases, and 50 µL of 1/2 diluted saturated α-CHCA solution was added as an internal standard, followed by HPLC analysis, which was performed using the above-mentioned conditions.

[3] = Resistance to protease digestion with pronase; type: in vitro ADME, Streptomyces griseus; details: 10 µM peptide in 2.5 × 10^−6 w/v% pronase/PBS, 37 °C, RP-HPLC, α-CHCA internal standard, read-out: intact peptide after incubation with pronase
Text: as §1, §2

[4] = Circular dichroism, R value of secondary structure; type: physicochemical; details: CD, peptide 24 µM
Procedure: The conformations of peptides were analyzed by circular dichroism (CD) in pH 7.3 4-(2-hydroxyethyl)-1-piperazineethanesulfonic acid (HEPES) buffer (Fig. 3a), 40% 2,2,2-trifluoroethanol (TFE)/pH 7.3 HEPES buffer (Fig. 3b), and 75% TFE/pH 7.3 HEPES buffer (Fig. 3c). Negative maxima at 205–209 nm (π → π*) and 222–225 nm (n → π*) were diagnostic of a right-handed (P) helical structure[31]–[33]. The ratio of R (θπ → π*/θn → π*) has been used as a parameter to distinguish an α-helical structure from a 3_10-helical structure (i.e., R ≈ 1: α-helix; R < 0.4: 3_10-helix) (Table S1)[34],[35]. Helical content (helicity) of peptides was estimated from the intensity of θn → π* values. A negative maximum at 195–200 nm (π → π*) and a weak positive maximum at 217 nm (n → π*) were diagnostic of a random coil structure. […] By adding TFE to HEPES buffer, (αMe)Leu peptide formed a complete right-handed (P) helical structure in a mixture of α- and 3_10-helices (R = 0.57 and 0.56 in Figs 3b and […], respectively). The dominant structures of Ac5c and Leu peptides changed by increased the rate of TFE to eventually be α-/3_10-helices (R = 0.52) and 3_10-helix (R = 0.30), respectively (Fig. 3c). […] Cbz-[L-Leu-L-Leu-(S,S)-Ac5c^dOM]3-OMe was reported to form a right-handed (P) helical structure in 50% TFE/H2O[37]. L-Leu might contribute to stabilization of the peptide helical secondary structure as well as (S,S)-Ac5c^dOM. Destabilization of the peptide helical secondary structure by L-Arg might be stronger than stabilization of it by (S,S)-Ac5c^dOM. Taken together with the results of CD spectra (Fig. 3), in which helicity of peptides was estimated from the intensity of θn → π* values, stability in the helicity of the peptides in the current study was as follows: (αMe)Leupeptide>Ac5cpeptide≈Leupeptide>Ac5c^dOMpeptide≈Argpeptide.
Figure 3 CD spectra of peptides in (a) HEPES buffer, (b) 40% TFE/HEPES buffer, and (c) 75% TFE/HEPES buffer. Peptide concentration: 24 µM.
Optical rotation [α]^rtD was measured using a Jasco DIP-370 polarimeter (JASCO, Tokyo, Japan) using a 0.5 dm cell. Infrared (IR) spectra were recorded using a Shimadzu IR Affinity-1 spectrometer (Shimadzu Corporation, Kyoto, Japan) for conventional measurement (KBr). CD spectra were recorded using a Jasco J-720W spectropolarimeter (JASCO) with a 1.0 mm path length cell. ^1H NMR (400 MHz) and ^13C NMR (100 MHz) spectra were determined using a JEOL AL 400 spectrometer (JEOL Ltd, Tokyo, Japan). Fast atom bombardment (FAB)-MS was measured using a JEOL JMS-700N (JEOL). MALDI-TOF-MS spectra were recorded using a Bruker Ultrax spectrometer (Bruker Daltonics, Fermont, CA). Piperidine was purchased from Tokyo Chemical Industry Co., Ltd. (Tokyo, Japan). Fmoc-L-Arg(Pbf)-OH, Fmoc-Gly-OH, Fmoc-L-Leu-OH, and CLEAR-Amide resin were purchased from the Peptide Institute., Inc. (Osaka, Japan). Fmoc-(S)-(αMe)Leu-OH was obtained from Nagase & Co., Ltd. (Kyoto, Japan). Fmoc-Ac5c-OH was purchased from Watanabe Chemical Industries, Ltd. (Hiroshima, Japan). HATU, HBTU, HOAt, and HOBt were from AAPPTec (Louisville, KY). COMU was from Novabiochem (Tokyo, Japan). CF and Dulbecco’s modified Eagle’s medium (DMEM) were obtained from Sigma-Aldrich Co. (St. Louis, MO). diisopropylethylamine (DIPEA) and heparin were purchased from Wako Pure Chemicals Co., Inc. (Osaka, Japan). Diethyl ether was from Kanto Chemical Co., Inc. (Tokyo, Japan). Trifluoroacetic acid (TFA) was obtained from Nacalai Tesque, Co., Inc. (Kyoto, Japan). Hoechst 33342 and a Cell counting kit-8 were purchased from Dojindo Laboratories (Kumamoto, Japan). LysoTracker Red was from Molecular Probes (Eugene, OR).
Table S1. R values (qπ → π*/qn → π*) of synthetic peptides.
R value (qπ → π*/qn → π* )
HEPES 40% TFE/HEPES 75% TFE/HEPES

HeLa cells [5] = details: 24 h incubation; cited from earlier work
Procedure: Cellular uptake of peptides was assessed against HeLa (Fig. 5a) and CHO-K1 cells (Fig. 5b) at a concentration of 1 µM and various incubation times (2, 6, and 24 h). […] Furthermore, the cellular uptake of Ac5c^dOM peptide increased up t ...

Row | Compound | cellular uptake, course over incubation time (HeLa cells [1]) | remaining at 4 h, 10 µM [2] [%] | remaining at 4 h, 10 µM [3] [%] | R value (θπ → π*/θn → π*) ([4]; 40% TFE/pH 7.3 HEPES buffer) | R value (θπ → π*/θn → π*) ([4]; 75% TFE/pH 7.3 HEPES buffer) | R value (θπ → π*/θn → π*) ([4]; pH 7.3 HEPES buffer, R ≈ 1 α-helix, R < 0.4 3_10-helix) | cell-penetrating ability compared with Arg nonapeptide (HeLa cells [5])
1 | CC(C)C[C@H](NC(=O)[C@H](CCCNC(=N)N)NC(=O)[C@H](CCCNC(=N)N)NC(=O)[C@H](CC(C)C)NC(=O)[C@H](CCCNC(=N)N)NC(=O)[C@H](CCCNC(=N)N)NC(=O)[C@H](CC(C)C)NC(=O)[C@H](CCCNC(=N)N)NC(=O)[C@H](CCCNC(=N)N)NC(=O)CNC(=O)c1ccc2c(c1)C(=O)OC21c2ccc(O)cc2Oc2cc(O)ccc21)C(N)=O [Leu peptide] (5FAM-GRRLRRLRRL-NH2) | small decrease | 0 | 0 | 0.26 | 0.30 | No significant maxima | –
2 | (L-Arg-L-Arg-Aib)3 [(L-Arg-L-Arg-Aib)3 nonapeptide] | – | – | – | – | – | – | much lower cell-penetrating ability than Arg nonapeptide
